Experimental data from US10995070B2, “Acetyl-CoA carboxylase modulators” (Monsanto Technology LLC, priority 2013, dated 2021).

Key:
[1] = tested on: Collectotrichum graminicola; test: Fungal growth inhibition assay, C. graminicola; type: cell-based; settings: Colletotrichum graminicola, 48 h
Description: (§1) Spores were isolated from previously sub-cultured plates of Botrytis cinerea, Phytophthora capsici, Fusarium moniliforme, Fusarium viguliforme, Collectotrichum graminicola, and Diplodia maydis. All spores were filtered and collected in a sterile glass bowl to isolate the spores from the mycelia. The isolation and sub-culture plate condition for each pathogen is described below.
Spore isolation for C. graminicola: A 1-2 week old oatmeal agar (pre-mix) plate was removed from 26° C. incubator with a light/dark 12 hour cycle and the mycelia were treated with 10-15 ml of filter sterilized distilled water. The mycelia were scraped to re-suspend the spores. The spores were then collected in a sterile filter bowl containing a piece of sterile cheesecloth and poured into a conical tube.
(§2) After spore isolation, pathogen spores were counted on a hemocytometer to calculate the spores/ml. In 17% V8 liquid media containing 3 g/L CaCO3, isolated spores were diluted to individual concentrations based on the growth curves at 48 hours of each pathogen. The spore concentrations for each pathogen were as follows: B. cinerea—10,000 sp/ml; P. capsici—300 sp/ml; F. monliforme—500 sp/ml; F. virguliforme—500 sp/ml; C. graminicola—3,000 sp/ml; and D. maydis—3,000 sp/ml.
(§3) Chemistry stocks were dissolved in DMSO at 2.5 mg/ml. Chemistry was diluted in a 96-well stock plate in five-fold dilutions to obtain a final concentration of 50, 10, and 2 ppm in vitro. The final concentration of the positive control after the five-fold dilutions was as follows: soraphen—0.5, 0.1, and 0.02 ppm. Negative controls on each plate included 2% DMSO, water containing spores and media, and a blank for background subtraction.
(§4) In a 96-well plate the spore solution, chemistries, and controls were combined to make the final solution concentrations mentioned above. Upon addition of the chemistry, an OD600 reading was done to assess chemical precipitation. The 96-well plates were incubated in plastic tubs containing wet paper towels under the following conditions, 25° C. in the dark for P. capsici and B. cinerea or 26° C. with light/dark cycle for C. graminicola, D. maydis, F. virguliforme, F. monliforme. Plate readings were repeated at 24 and 48 hrs. Visual ratings were performed at 24 and 48 hrs to check for precipitation and confirm efficacy. Visual and OD600 ratings of the chemistry at 48 hours were compared to the 2% DMSO control to determine the percent of pathogen growth inhibition.

[2] = tested on: Diplodia maydis; test: Fungal growth inhibition assay, D. maydis; type: cell-based; settings: 48 h
Description: as §1
Spore isolation for D. maydis: A 3-4 week old PDA (pre-mix) plate was removed from 26° C. incubator with a light/dark 12 hour cycle and the mycelia were treated with 6-7 ml of sterile distilled water, scraped into a sterile petri dish, and smashed to open the pycnidia. The spores were then collected in a sterile filter bowl containing a fluted piece of filter paper and poured into a conical tube.
as §2, §3, §4

[3] = target: Ustilago maydis acetyl CoA carboxylase (ACCase) (Ustilago maydis, UniProt A0A0D1DYD5); test: ACCase enzymatic assay (coupled PK/LDH, NADH OD340); type: biochemical; settings: read-out: ACCase Inhibitory Activity IC50
Description: Ustilago maydis acetyl CoA carboxylase (ACCase) was cloned, expressed, and purified as described (Weatherly et al, Biochem. J., 2004) and the test compounds were tested in a 96-well plate format. Primary in vitro screening consisted of obtaining dose response data at 100, 33, 10, and 1 μM inhibitor. Actives in the primary screen were re-tested to establish IC50 values.
Direct detection of the conversion of acetyl CoA to malonyl CoA by ACCase was not feasible, but during this process ATP is converted to ADP which allowed for detection through a standard reaction coupling with ADP recycling to the oxidation of NADH. Thus, ACCase activity was measured via kinetic OD340 measurements of the conversion of NADH to NAD in a coupled reaction involving the conversion of phosphoenolpyruvate (PEP) to lactate.
The complete 200 ul reaction mixture contained 52.5 mM HEPES (pH8), 2.625 mM MgCl2, 1 mM ATP, 0.525 mM DTT, 11 mM NaHCO3, 1% DMSO with or without inhibitor, 1× pyruvate kinase/lactate dehydrogenase (PK/LDH), 0.3 mM NADH, 0.5 mM PEP, and 5 μg ACCase. The reactions were incubated at 30° C. for 10 minutes and then initiated by the addition of 0.33 mM acetyl CoA. The initiated reactions were read immediately via plate reader at OD340 and kinetic readings were acquired every 20 s for 15 minutes while keeping the temperature at 30° C.
A slope of the kinetic curve was determined by using the 2 to 7 minute data which was then calculated as percent inhibition relative to the no inhibitor control.
The primary screens were conducted in duplicate and the IC50's conducted in triplicate. Averages were reported along with standard deviation calculation to generate error bars.
Each plate contained its own controls and consisted of a DMSO only control, 5-fold titration series of soraphen from 2 μM to 3.2 nM, and an ADP coupled reaction control. […]
A slope of the kinetic curve was determined by using the 2 to 7 minute data which was then calculated as percent inhibition relative to the no inhibitor control. Those compounds which had no significant PK/LDH inhibition at or above the IC50 in the ACCase assay, were considered to be valid modulators of only ACCase.

[4] = tested on: Fusarium virguliforme; test: Fungal growth inhibition assay, F. virguliforme; type: cell-based; settings: 48 h
Description: as §1
Spore isolation for F. virguliforme: A 2-3 week old PDA (pre-mix) plate containing cefotaxime (100 mg/L) and kanamycin (50 mg/L) was removed from 26° C. incubator with a light/dark 12 hour cycle and the mycelia were treated with 5-10 ml of filter sterilized distilled water. The mycelia were scraped to re-suspend the spores. The spores were then collected in a sterile filter bowl containing a fluted piece of filter paper and poured into a conical tube.
as §2, §3, §4

[5] = tested on: Saccharomyces cerevisiae; test: Yeast growth inhibition assay; type: cell-based; settings: read-out: S. cerevisiae % growth inhibition
Description: Yeast cells (Ade2 strain) were grown in liquid YPD (1% yeast extract, 2% peptone, 2% dextrose) for 16 hours at 30° C. from previously sub-cultured plates of Saccharomyces cerevisiae. The OD600 of the overnight culture was checked via spectrophotometer and diluted to a concentration of 2×10^4 cells/ml.
Chemistry stocks were dissolved in DMSO to a concentration of 10 mM. Chemistry stocks were further diluted in a 96-well stock plate to obtain final concentrations of […] in 1% DMSO. The final concentrations of the soraphen positive control were 400, 40, and 3.2 nM. The negative controls on each plate included a background subtraction control containing yeast and 1% DMSO (without chemistry) and a second contamination control containing YPD (with no yeast) and 1% DMSO (without chemistry).
98 μl liquid YPD was added to 2 μl diluted stock of DMSO per well and mixed thoroughly. After mixing, 100 μl of the diluted yeast solution was added to bring the final yeast concentration to 1×10^4 cells/ml or 2000 cells per well. An initial spectrophotometric reading at OD600 was conducted on the entire plate and served as the 0 hours time point used to subtract any background. […] […] […] All experiments were conducted in triplicate. Averages were reported along with standard deviation calculation to generate error bars. Each plate contained its own controls and consisted of inoculated+DMSO, non-inoculated+DMSO, and a titration series of soraphen at 400, 40, and 3.2 nM.

Ustilago maydis acetyl CoA carboxylase (ACCase), sequence (A0A0D1DYD5 1-2185): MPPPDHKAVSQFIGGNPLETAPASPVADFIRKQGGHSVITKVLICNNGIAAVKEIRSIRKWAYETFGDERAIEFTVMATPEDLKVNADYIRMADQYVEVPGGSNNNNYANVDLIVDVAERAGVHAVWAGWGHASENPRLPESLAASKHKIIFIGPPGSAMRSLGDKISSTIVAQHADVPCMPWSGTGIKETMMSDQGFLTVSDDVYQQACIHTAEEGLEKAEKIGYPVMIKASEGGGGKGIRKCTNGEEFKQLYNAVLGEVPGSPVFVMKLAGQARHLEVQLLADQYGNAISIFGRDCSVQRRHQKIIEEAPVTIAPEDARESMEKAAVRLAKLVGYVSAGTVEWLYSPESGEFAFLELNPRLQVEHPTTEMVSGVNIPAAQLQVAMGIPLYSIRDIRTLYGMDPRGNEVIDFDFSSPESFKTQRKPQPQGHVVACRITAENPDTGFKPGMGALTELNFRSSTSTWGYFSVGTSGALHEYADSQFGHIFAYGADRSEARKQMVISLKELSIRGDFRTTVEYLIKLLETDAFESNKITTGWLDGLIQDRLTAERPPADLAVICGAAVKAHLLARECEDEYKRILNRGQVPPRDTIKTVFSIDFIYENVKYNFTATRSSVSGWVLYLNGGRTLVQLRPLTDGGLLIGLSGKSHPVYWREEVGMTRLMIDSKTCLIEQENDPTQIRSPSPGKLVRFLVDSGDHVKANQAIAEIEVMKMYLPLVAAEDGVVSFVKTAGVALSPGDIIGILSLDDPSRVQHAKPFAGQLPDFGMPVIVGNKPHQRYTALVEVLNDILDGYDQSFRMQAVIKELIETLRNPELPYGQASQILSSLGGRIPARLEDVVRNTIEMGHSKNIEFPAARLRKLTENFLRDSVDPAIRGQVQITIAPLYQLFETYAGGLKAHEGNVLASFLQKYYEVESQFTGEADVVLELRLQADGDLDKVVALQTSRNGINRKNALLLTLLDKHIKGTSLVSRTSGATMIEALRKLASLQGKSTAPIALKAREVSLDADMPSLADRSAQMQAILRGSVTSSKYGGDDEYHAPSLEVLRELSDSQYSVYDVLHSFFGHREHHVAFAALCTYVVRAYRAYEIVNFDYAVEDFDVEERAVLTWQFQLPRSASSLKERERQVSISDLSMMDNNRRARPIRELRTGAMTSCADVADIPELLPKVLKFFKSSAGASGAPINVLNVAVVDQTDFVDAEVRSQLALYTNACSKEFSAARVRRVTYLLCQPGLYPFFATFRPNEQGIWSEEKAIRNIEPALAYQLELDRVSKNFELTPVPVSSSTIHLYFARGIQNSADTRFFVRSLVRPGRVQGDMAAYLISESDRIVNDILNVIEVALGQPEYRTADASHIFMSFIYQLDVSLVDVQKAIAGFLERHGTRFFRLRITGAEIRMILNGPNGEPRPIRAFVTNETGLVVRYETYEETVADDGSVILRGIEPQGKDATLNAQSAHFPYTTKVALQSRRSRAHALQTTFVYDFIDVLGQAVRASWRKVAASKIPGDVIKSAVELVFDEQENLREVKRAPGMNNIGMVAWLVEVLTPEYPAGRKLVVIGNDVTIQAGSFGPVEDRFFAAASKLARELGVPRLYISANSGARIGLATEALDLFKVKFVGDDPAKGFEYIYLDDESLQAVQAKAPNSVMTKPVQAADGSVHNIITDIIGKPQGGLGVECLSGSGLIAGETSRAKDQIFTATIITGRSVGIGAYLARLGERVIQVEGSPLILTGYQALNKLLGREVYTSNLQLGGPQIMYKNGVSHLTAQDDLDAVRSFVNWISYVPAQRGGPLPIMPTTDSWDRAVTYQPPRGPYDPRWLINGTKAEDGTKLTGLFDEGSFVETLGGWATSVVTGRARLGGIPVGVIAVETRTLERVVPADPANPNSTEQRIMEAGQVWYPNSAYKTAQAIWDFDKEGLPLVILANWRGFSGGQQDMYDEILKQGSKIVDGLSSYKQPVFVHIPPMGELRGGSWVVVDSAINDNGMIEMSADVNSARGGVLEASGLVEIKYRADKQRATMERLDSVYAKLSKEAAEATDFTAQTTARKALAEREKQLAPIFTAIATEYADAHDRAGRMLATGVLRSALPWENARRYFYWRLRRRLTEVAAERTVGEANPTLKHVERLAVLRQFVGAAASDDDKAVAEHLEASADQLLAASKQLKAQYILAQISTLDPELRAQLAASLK

SMILES | inhibition at 2 ppm [1] [%] | inhibition at 10 ppm [1] [%] | inhibition at 2 ppm [2] [%] | inhibition at 10 ppm [2] [%] | IC50 [3] [µM] | also measured
COc1ccc(-c2cc(-c3ccccc3)c3ccccc3n2)cc1OC [Formula IV-ii, 2-(3,4-dimethoxyphenyl)-4-phenylquinoline] | 34 | 41 | 26 | 34 | 7.82 | –
NC(=O)Cc1ccc(-c2nc3ccccc3c(-c3ccccc3)c2Cl)s1 [Formula Ib-i, 2-(5-(3-chloro-4-phenylquinolin-2-yl)thiophen-2-yl)acetamide] | 44 | 51 | – | – | 1.32 | inhibition at 2 ppm [4]: 43%; inhibition at 10 ppm [4]: 31%
CCc1cccc2c(-c3ccccc3)cc(-c3ccc(CC(N)=O)s3)nc12 [Formula Ib-vi, 2-(5-(8-ethyl-4-phenylquinolin-2-yl)thiophen-2-yl)acetamide] | – | – | – | – | 9.58 | –
COc1ccc(-c2cc(-c3ccccc3)c3ccccc3n2)cc1 [Formula IV-i, 2-(4-methoxyphenyl)-4-phenylquinoline] | 35 | 22 | 21 | 44 | 21.2 | –
CCc1cccc2c(-c3ccccc3)cc(-c3ccc(OCC(N)=O)cc3)nc12 [Formula Ia-iv, 2-(4-(8-ethyl-4-phenylquinolin-2-yl)phenoxy)acetamide] | – | – | – | – | 8.15 | –
O=C(O)COc1ccc(-c2cc(-c3ccccc3)c3ccccc3n2)cc1 [Formula Ia-ii, 2-(4-(4-phenylquinolin-2-yl)phenoxy)acetic acid] | – | – | – | – | 0.165 | –
NC(=O)Cc1ccc(-c2cc(-c3ccccc3)c3ccccc3n2)s1 [Formula Ib-iii, 2-(5-(4-phenylquinolin-2-yl)thiophen-2-yl)acetamide] | 31 | 98 | – | – | 8.18 | inhibition at 3.7 µM ([5]; 3.7 μM): 0%; inhibition at 11.1 µM ([5]; 11.1 μM): 14%; inhibition at 33.3 µM ([5]; 33.3 μM): 57%; inhibition at 100 µM ([5]; 100 μM): 99%; inhibition at 50 ppm [1]: 81%
COc1ccc2c(-c3ccccc3)cc(SC(C)C(N)=O)nc2c1 (centres unmarked) [Formula III-i, 2-((7-methoxy-4-phenylquinolin-2-yl)thio)propanamide] | – | – | – | – | 8.8 | –
COC(=O)COc1ccc(-c2cc(-c3ccccc3)c3ccccc3n2)cc1 [Formula IIc-i, methyl 2-(4-(4-phenylquinolin-2-yl)phenoxy)acetate] | – | – | 12 | 44 | – | –
COc1cccc2c(-c3ccccc3)cc(-c3ccc(CC(N)=O)s3)nc12 [Formula Ib-v, 2-(5-(8-methoxy-4-phenylquinolin-2-yl)thiophen-2-yl)acetamide] | – | – | – | – | 4.21 | –
COC(=O)Cc1ccc(-c2nc3ccccc3c(-c3ccccc3)c2Cl)s1 [Formula IId-ii, methyl 2-(5-(3-chloro-4-phenylquinolin-2-yl)thiophen-2-yl)acetate] | – | – | 26 | 30 | – | inhibition at 2 ppm [4]: 44%; inhibition at 10 ppm [4]: 34%
CO[C@H]1CCCC[C@@H](c2ccccc2)OC(=O)[C@@H](C)[C@@]2(O)O[C@H]([C@@H](C)[C@H](O)[C@H]2OC)[C@@H](C)/C=C/[C@H]1OC [Soraphen, reference compound] | – | – | – | – | 0.0458 | –
O=C(COc1ccc(-c2cc(-c3ccccc3)c3cc(Cl)ccc3n2)cc1)NCCO [Formula Ia-v, 2-(4-(6-chloro-4-phenylquinolin-2-yl)phenoxy)-N-(2-hydroxyethyl)acetamide] | – | – | – | – | 13 | –
NC(=O)COc1ccc(-c2cc(-c3ccccc3)c3ccccc3n2)cc1 [Formula Ia-i, 2-(4-(4-phenylquinolin-2-yl)phenoxy)acetamide] | – | – | – | – | 0.515 | –
COC(=O)Cc1ccc(-c2cc(-c3ccccc3)c3ccccc3n2)s1 [Formula IId-i, methyl 2-(5-(4-phenylquinolin-2-yl)thiophen-2-yl)acetate] | 6 | 32 | 16 | 26 | 12 | inhibition at 50 ppm [1]: 79%
COc1cccc2c(-c3ccccc3)cc(-c3ccc(OCC(N)=O)cc3)nc12 [Formula Ia-iii, 2-(4-(8-methoxy-4-phenylquinolin-2-yl)phenoxy)acetamide] | – | – | – | – | 0.549 | –
